Data as given in US12319675B2 (Artax Biopharma Inc., priority 2018, dated 2025).

Tests used:
[1] = Microsomal stability assay, mouse; assay type: in vitro ADME; conditions: mouse microsomes, read-out: Microsomal Stability (T1/2 min) Mouse
Experimental: (§1) Microsomal stability assays were performed using mouse, rat, and human […] according to methods well-known in the art. Microsomal stability results are shown in Table 2 for selected compounds of the invention. The compound numbers correspond to the compound numbers in Table 1. […] “N/A” indicates not assayed.

[2] = Microsomal stability assay, rat; assay type: in vitro ADME; conditions: rat microsomes, read-out: Microsomal Stability (T1/2 min) Rat
Experimental: as §1

[3] = Microsomal stability assay, human; assay type: in vitro ADME; conditions: human microsomes, read-out: Microsomal Stability (T1/2 min) Human
Experimental: as §1

[4] = target: Nck SH3 domain interaction with the proline rich sequence of TCR subunit CD3ε (Homo sapiens, UniProt P16333); test: Competitive binding, biosensor with Interferometric Optical Detection Method (IODM); conditions: ratio of 1:1 between Nck SH3 domain and inhibitors; biotinylated CD3ε peptide on sensing surface
Experimental: Inhibition of Nck SH3 domain interaction with the proline rich sequence of TCR subunit CD3ε was measured by optical read-out of a biosensor based on the Interferometric Optical Detection Method (IODM), using established methods (WO 2010/026269; WO 2014/020159; Laguna, M. et al., Sensors, 2015, 15(8):19819-29; and Holgado, M. et al., Sensors, 2014, 14(2): 3675-89).
Briefly, a Biophotonic Cell (BICELL) based on Fabry-Perot interferometers was used as the photonic transducer. The BICELL was fabricated using SU8 in cyclopentanone according to known methods (e.g., Laguna, M. F. et al., Sensors, 2014, 14(4): 6695-6700). Cured film was then treated with 95% sulfuric acid for 10 seconds. Streptavidin was then immobilized on the sensing surface in phosphate buffered saline (PBS; pH 7.4) over 20 min at 37° C. followed by blocking of the surface with 5% skin milk in PBS (pH 7.4). Biotinylated CD3ε peptide (SEQ ID NO: 001) in PBS (pH 7.4) was incubated with the streptavidin coated film to biofunctionalize the sensing surface (20 min at 37° C.).
Competitive binding assays were performed to determine the affinity reaction of inhibitors. The screening was carried out using a ratio of 1:1 between Nck SH3 domain and inhibitors. The optical readout of the biosensor was accomplished by a Fourier transform visible-infrared (FT-VIS-IR) spectrometer. Competitive binding results are shown in Table 3 for selected compounds of the invention. The compound numbers correspond to the compound numbers in Table 1. Compounds having a designation of “A” provide an Increased Relative Optical Power (ΔIROP) of less than or equal to thirty percent (≤30%); compounds having a designation of “B” provide a ΔIROP of between thirty and fifty percent (>30% to ≤50%); compounds having a designation of “C” provide an ΔIROP of between fifty and seventy percent (>50% to ≤70%); and compounds having a designation of “D” provide a ΔIROP of greater than seventy percent (>70%).

[5] = test system: CD3 mediated phosphorylation of ZAP70 in Jurkat cells; test: CD3 mediated phosphorylation of ZAP70 in Jurkat cells (HTRF); assay type: cell-based; conditions: Homo sapiens, Jurkat cells stimulated with 20 μg/mL anti-CD3 antibody; for Emax: maximum inhibition, read-out: pZAP70 Inhibition - Maximum Percent Inhibition (% Inhibition); for IC50: read-out: pZAP70 Inhibition IC50
Experimental: Inhibition of CD3 mediated phosphorylation of ZAP70 in Jurkat cells was measured by a cellular based Homogeneous Time-Resolved Fluorescence (HTRF) assay utilizing a Total ZAP-70 HTRF kit.
Briefly, Jurkat cells (˜1.3×10^6 cells/mL) were harvested on the day of experimentation. Cells were washed with PBS and resuspended in Assay Buffer (RPMI 1640 media plus 10% FBS) and counted.
Jurkat cells were seeded in Assay media at a total volume of 4 μL/well (40K cells/well) in a 384-low volume white flat bottom plate. The cells were then incubated at 37° C./5% CO2 for 30 minutes. The cells were then treated in duplicate with test compounds (3×) and reference compounds (3×) in a total volume of 4 μL, respectively. A compound dilution scheme is exemplified in FIG. 1.
The plate was then transferred to an incubator maintained at 37° C./5% CO2 for 2 minutes. Following incubation, cells were stimulated with 20 μg/mL of anti-CD3 antibody (1 mg/mL stock) and assay media was used to bring the total well volume 4 μL/well. The plate was then transferred to the incubator maintained at 37° C./5% CO2 for 2.5 minutes. Following incubation, 4 μL of lysis buffer (4×) provided in the kit was added to each well. The plate was then incubated at RT for 1 hour with gentle shaking. Following incubation, 4 μL of detection mix was added to each well and the plate was sealed with a plate sealer and left overnight at RT in the dark.
The Envision reader was set-up for Eu^3+ cryptate and fluorescence emission was read at two different wavelengths (620 nm and 665 nm). • Excitation filter: UV2(TRF) 320 nm • Emission filter: 665 nm • 2nd Emission filter: Europium 615 nm • Measurement height (mm): 6.5 • Excitation light (%): 100 • Delay (μs): 50 • Window time (μs): 400 • Time between flashes (μs): 2000 • Number of flashes: 100 • Number of flashes for 2nd detector: 100
The data is represented by the signal form the two wavelengths:
The ratio of the signal is calculated for each individual well:
The data was plotted using Graph Pad Prism. The significance between untreated vs. treated groups was assessed by One-way ANOVA and Bonferroni posttest comparing all columns in the graph.
ZAP70 IC50 results are shown in Table 6 for select compounds of the invention. The compound numbers correspond to the compound numbers in Table 1. […] “ND” indicates not determined.
ZAP70 percent maximum inhibition results are shown in Table 7 for select compounds of the invention. The compound numbers correspond to the compound numbers in Table 1.

Compound | half-life [1] [min] | half-life [2] [min] | half-life [3] [min] | IC50 [5] [nM] | ΔIROP (Increased Relative Optical Power) [4] | Emax [5] [%]
CC(C)Oc1ccc2c(c1)C(c1ccc(F)cc1)=C(CN1CCCC1)CO2 [Compound I-14] | < 10 | < 10 | 10 to 30 | < 1 | C (an ΔIROP of between fifty and seventy percent (>50% to ≤70%)) | 30 to 40
CC(C)c1ccc2c(c1)C(c1ccc(F)cc1)=C(CN1CCCC1)CO2 [Compound I-15] | < 10 | < 10 | 10 to 30 | < 1 | C (an ΔIROP of between fifty and seventy percent (>50% to ≤70%)) | 30 to 40
COc1ccc2c(c1)C(c1ccc(Cl)cc1)=C(CN1CCCC1)CO2 [Compound I-19] | < 10 | < 10 | 10 to 30 | 1 to 10 | C (an ΔIROP of between fifty and seventy percent (>50% to ≤70%)) | > 50
COc1ccc2c(c1)C(c1ccc(C(F)(F)F)cc1)=C(CN1CCCC1)CO2 [Compound I-20] | < 10 | < 10 | 10 to 30 | < 1 | B (a ΔIROP of between thirty and fifty percent (>30% to ≤50%)) | 40 to 50
COc1ccc2c(c1)C(c1cccc(F)c1)=C(CN1CCCC1)CO2 [Compound I-21] | < 10 | < 10 | 10 to 30 | 1 to 10 | C (an ΔIROP of between fifty and seventy percent (>50% to ≤70%)) | 40 to 50
COc1ccc2c(c1)C(c1ccc(C#N)cc1)=C(CN1CCCC1)CO2 [Compound I-22] | < 10 | < 10 | 10 to 30 | – | B (a ΔIROP of between thirty and fifty percent (>30% to ≤50%)) | ≤ 30

Further lines, with some results ahead:

half-life [1] [min] | half-life [2] [min] | half-life [3] [min] | IC50 [5] [nM] | Compound | ΔIROP (Increased Relative Optical Power) [4] | Emax [5] [%]
< 10 | 10 to 30 | 10 to 30 | 1 to 10 | CC(C)Oc1ccc2c(c1)C(c1ccc(F)cc1)=C(C(=O)N1CCN(C)CC1)CO2 [Compound I-23] | A (an Increased Relative Optical Power (ΔIROP) of less than or equal to thirty percent (≤30%)) | > 50
< 10 | < 10 | < 10 | 1 to 10 | CC(C)c1ccc2c(c1)C(c1ccc(F)cc1)=C(C(=O)N1CCN(C)CC1)CO2 [Compound I-24] | C (an ΔIROP of between fifty and seventy percent (>50% to ≤70%)) | 40 to 50
< 10 | 10 to 30 | > 30 | 1 to 10 | COc1ccc2c(c1)C(c1ccc(C#N)cc1)=C(C(=O)N1CCN(C)CC1)CO2 [Compound I-30] | C (an ΔIROP of between fifty and seventy percent (>50% to ≤70%)) | 40 to 50
> 30 | > 30 | > 30 | 1 to 10 | O=C(O)CCOc1ccc2c(c1)C(c1ccc(F)cc1)=C(CN1CCCC1)CO2 [Compound I-33, 3-((4-(4-fluorophenyl)-3-(pyrrolidin-1-ylmethyl)-2H-chromen-6-yl)oxy)propanoic Acid] | A (an Increased Relative Optical Power (ΔIROP) of less than or equal to thirty percent (≤30%)) | > 50
> 30 | > 30 | > 30 | 1 to 10 | O=C(O)CCOc1ccc2c(c1)C(c1ccc(F)cc1)=C(C(=O)N1CCCC1)CO2 [Compound I-40, 3-((4-(4-fluorophenyl)-3-(pyrrolidine-1-carbonyl)-2H-chromen-6-yl)oxy)propanoic acid] | D (a ΔIROP of greater than seventy percent (>70%)) | 30 to 40
< 10 | < 10 | < 10 | 1 to 10 | CN1CCN(C(=O)C2=C(c3ccc(F)cc3)c3ccccc3OC2)CC1 [Compound I-44] | D (a ΔIROP of greater than seventy percent (>70%)) | 30 to 40
